{"source": "paper PMC5931576", "about": "“Allosteric modulation of the farnesoid X receptor by a small molecule” (Scientific Reports, 2018)", "key": {"[1]": {"biological_target": "T1, human FXR (Homo sapiens, UniProt Q96RI1)", "T1 construct": "expressed in transfected cells; host or cells: HeLa", "T1 sequence (Q96RI1 1-486)": "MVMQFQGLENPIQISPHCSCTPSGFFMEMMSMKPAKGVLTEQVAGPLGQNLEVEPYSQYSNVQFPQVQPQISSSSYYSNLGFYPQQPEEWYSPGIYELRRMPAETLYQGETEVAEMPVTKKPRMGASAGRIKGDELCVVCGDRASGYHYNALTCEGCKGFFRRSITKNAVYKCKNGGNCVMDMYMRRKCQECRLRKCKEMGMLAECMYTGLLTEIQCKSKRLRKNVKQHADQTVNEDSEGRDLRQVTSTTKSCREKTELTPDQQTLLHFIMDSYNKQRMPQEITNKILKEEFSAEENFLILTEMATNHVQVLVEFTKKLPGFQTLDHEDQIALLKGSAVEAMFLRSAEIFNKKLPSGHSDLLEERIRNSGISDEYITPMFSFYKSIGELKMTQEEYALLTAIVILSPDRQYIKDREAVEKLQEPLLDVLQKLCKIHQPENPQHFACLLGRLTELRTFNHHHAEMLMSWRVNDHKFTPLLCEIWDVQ", "T1 sequence (P19793 1-462 partner)": "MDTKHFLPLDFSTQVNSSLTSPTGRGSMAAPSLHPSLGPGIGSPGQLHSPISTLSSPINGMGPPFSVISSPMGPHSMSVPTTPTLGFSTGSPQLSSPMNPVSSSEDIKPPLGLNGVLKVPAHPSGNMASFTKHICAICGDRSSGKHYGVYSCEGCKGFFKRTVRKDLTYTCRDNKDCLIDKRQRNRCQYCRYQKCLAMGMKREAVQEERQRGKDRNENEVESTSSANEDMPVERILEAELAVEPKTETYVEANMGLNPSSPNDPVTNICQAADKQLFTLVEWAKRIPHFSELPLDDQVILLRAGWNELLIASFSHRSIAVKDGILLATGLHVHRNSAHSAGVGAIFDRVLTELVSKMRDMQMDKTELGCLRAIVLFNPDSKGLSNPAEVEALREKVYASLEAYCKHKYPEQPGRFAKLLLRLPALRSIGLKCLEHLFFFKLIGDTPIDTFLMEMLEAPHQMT", "assay": "Full-length FXR transactivation (reporter gene) assay in HeLa cells", "format": "cell-based"}, "[2]": {"tested_on": "FXR-LBD", "assay": "Thermal shift assay (SYPRO Orange)", "format": "binding", "conditions": "compound 100 µM alone, 5 µM FXR-LBD; mean ± SEM, n ≥ 4", "experimental": "Thermal shift experiments were performed in clear 96-well plates (Invitrogen) using SYPRO Orange (Invitrogen) as dye as described previously[38]. 10 μL of test compound (final concentrations: 3: 100 µM; 16: 100 µM) in assay buffer (10 mM TRIS (pH 8.3), 5 mM DTT, 0.5 mM EDTA, 100 mM NaCl) were mixed with 10 μL of FXR-LBD (final protein concentration 5 µM) in assay buffer and 5 µL of SYPRO Orange (5 × final concentration). Temperature-dependent fluorescence increase reporting protein denaturation was measured in duplicates in an ICycler (Bio-Rad Laboratories, Hercules, CA, USA) from 20 to 90 °C in steps of 0.5 °C per minute at 300 nm excitation and 570 nm emission wavelength. The first derivative of the melting curve was calculated using the Graph Pad Prism 5 software. All curves were determined at least four times in independent experiments."}, "[3]": {"tested_on": "PPARα/γ/δ, LXRα/β, RXRα/β/γ, RARα/β/γ, VDR and CAR", "assay": "Hybrid reporter gene assays for nuclear receptors related to FXR", "format": "cell-based, human", "description": "The Gal4-fusion receptor plasmids pFA-CMV-hPPARα-LBD[34], pFA-CMV-hPPARγ-LBD[34], pFA-CMV-hPPARδ-LBD[34], pFA-CMV-hLXRα-LBD[35], pFA-CMV-hLXRβ-LBD[35], pFA-CMV-hRXRα-LBD[36], pFA-CMV-hRXRβ-LBD[36], pFA-CMV-hRXRγ-LBD[36], pFA-CMV-hRARα-LBD[36], pFA-CMV-hRARβ-LBD[36], pFA-CMV-hRARγ-LBD[36], pFA-CMV-hVDR-LBD[36] and pFA-CMV-hCAR-LBD[36] coding for the hinge region and ligand binding domain (LBD) of the canonical isoform of the respective nuclear receptor have been reported previously. pFR-Luc (Stratagene) was used as reporter plasmid and pRL-SV40 (Promega) for normalization of transfection efficiency and cell growth.\nHEK293T cells were grown in DMEM high glucose, supplemented with 10% FCS, sodium pyruvate (1 mM), penicillin (100 U/mL) and streptomycin (100 μg/mL) at 37 °C and 5% CO2. The day before transfection, HEK293T cells were seeded in 96-well plates (2.5·10^4 cells/well). Before transfection, medium was changed to Opti-MEM without supplements. Transient transfection was carried out using Lipofectamine LTX reagent (Invitrogen) according to the manufacturer’s protocol with pFR-Luc (Stratagene), pRL-SV40 (Promega) and pFA-CMV-hNR-LBD. […] Luminescence was measured with an Infinite M200 luminometer (Tecan Deutschland GmbH) or a Tecan Spark 10 M luminometer (Tecan). […]"}, "[4]": {"tested_on": "c-Kit", "assay": "Kinase inhibition assay (radiometric or HTRF)", "format": "biochemical"}, "[5]": {"tested_on": "HepG2 cells", "assay": "WST-1 assay", "format": "cell-based", "conditions": "48 h (or 24 h)", "procedure": "In vitro biological evaluation […]\nWST-1 assay (Roche Diagnostics International AG, Rotkreuz, Schweiz) was performed according to manufacturer’s protocol and as described previously. In brief, HepG2 cells were seeded in DMEM high glucose, supplemented with SP (1 mM), penicillin (100 U/mL), streptomycin (100 µg/mL) and 10% FCS in 96-well plates (3∙10^4 cells/well). After 24 h, medium was changed to DMEM high glucose, supplemented with penicillin (100 U/mL), streptomycin (100 µg/mL) and 1% charcoal stripped FCS and cells were incubated with 4 or 16 (final […]\nand DMEM/1% DMSO as negative controls. After 48 h (or 24 h), WST reagent (Roche Diagnostics International AG) was added to each well according to manufacturer’s instructions. After 45 min incubation, absorption (450 nm/ reference: 620 nm) was determined with a Tecan Infinite M200 luminometer (Tecan Deutschland GmbH). Each experiment was repeated at least three times in triplicates. […]"}}, "data": [{"smiles": "CS(=O)(=O)O.CS(=O)(=O)O.CS(=O)(=O)O.CS(=O)(=O)O.Cc1ccc(NC(=O)c2ccc(Cl)cc2)cc1Nc1nccc(-c2cccnc2)n1.Cc1ccc(NC(=O)c2ccc(Cl)cc2)cc1Nc1nccc(-c2cccnc2)n1.O.O.O", "note": "[compound 16, 4-Chloro-N-(4-methyl-3-(4-(pyridin-3-yl)pyrimidin-2-ylamino)phenyl)benzamide dimesylate-sesquihydrate]", "values": [{"measurement": "Effect on transactivation efficacy of FXR agonists 1–3", "setting": "[1]; 16 at 10 µM", "result": "significantly enhances"}, {"measurement": "Emax", "setting": "[1]; HeLa, read-out: hFXR: max. rel. act.", "result": 8.4, "unit": "%"}, {"measurement": "EC50", "setting": "[1]; full-length reporter gene assay, HeLa cells, mean ± SEM, n ≥ 3, read-out: hFXR: EC50", "result": "1.9 ± 0.6", "unit": "nM"}, {"measurement": "Effect on EC50-value of 1", "setting": "[1]; in presence of 0.1 µM 16", "result": "not affected"}, {"measurement": "Increase of maximum relative activation of 1", "setting": "[1]; in presence of 0.1 µM 16", "result": "about 50%"}, {"measurement": "Thermal shift of FXR-LBD melting point", "setting": "[2]", "result": "−1.0 ± 0.0", "unit": "°C"}, {"measurement": "Selectivity over nuclear receptors related to FXR", "setting": "[3]", "result": "high selectivity"}, {"measurement": "Inhibition of c-Kit", "setting": "[4]", "result": "potent inhibitor"}, {"measurement": "WST-1, mean percent of untreated control", "setting": "[5]; HepG2, 0.1 µM", "result": "113 ± 1", "unit": "%"}, {"measurement": "WST-1, mean percent of untreated control", "setting": "[5]; HepG2, 0.3 µM", "result": "107 ± 7", "unit": "%"}, {"measurement": "WST-1, mean percent of untreated control", "setting": "[5]; HepG2, 1 µM", "result": "112 ± 3", "unit": "%"}, {"measurement": "WST-1, mean percent of untreated control", "setting": "[5]; HepG2, 10 µM", "result": "92 ± 2", "unit": "%"}, {"measurement": "WST-1, mean percent of untreated control", "setting": "[5]; HepG2, 50 µM", "result": "87 ± 2", "unit": "%"}, {"measurement": "WST-1, mean percent of untreated control", "setting": "[5]; HepG2, 16 (0.3 µM) + 1 (50 µM)", "result": "93 ± 7", "unit": "%"}]}]}
